Measurements: patent US12577196B2 (priority 2019, dated 2026)
In brackets after ≈: the same amount, converted by molar mass. Like-named read-outs stand apart in the source and are kept apart here.

Key:
[1] = test system: Staphylococcus aureus ATCC 6538; assay: MIC determination by broth micro dilution (Example 5); type: cell-based; details: ATCC6538; Staphylococcus aureus ATCC 6538, 4.5×10^3 Cfu/Ml
Protocol: Minimum Inhibitory Concentration (MIC) Determination by Broth Micro Dilution
(§1) Standardisation of Inoculum
The suspensions were mixed. […] The inoculums were 30 mixed.
(§2) Inoculation and Incubation
100 μl of the initial concentration of the sample was added to the first well.
Staphylococcus aureus ATCC 6538 4.5×10^3 Cfu/Ml

[2] = test system: Candida albicans ATCC 10231; type: cell-based; details: ATCC10231
Protocol: (§3) MIC Determination by Broth Micro Dilution
as §1
(§4) The inoculums were mixed.
as §2

[3] = test system: Salmonella enterica serovar Typhimurium ATCC 14028
in vitro = details: human
[4] = type: cell-based; details: Table 12, strain not named
Protocol: as §3, §1, §4, §2

[5] = test system: Candida albicans NCTC 885-653; type: cell-based; set-up: unit not given beside the values
Protocol: as §3, §1, §4, §2

Compound | MIC [1] [µg/mL] | MIC [2] [µg/mL] | MIC ([3]; Salmonella enterica) [µg/mL] | further results
Cc1ccc(C(C)C)c(OC(=O)C[N+](C)(C)CCCCCCCCCC[N+](C)(C)CCCCCCCCCC[N+](C)(C)CC(=O)Oc2cc(C(C)C)ccc2C)c1.[Br-].[Cl-].[Cl-] [Comparative compound 1, reference compound] | 1.95 |  |  | 
Cc1ccc(C(C)C)cc1OC(=O)C[N+](C)(C)CCCCCCCCCC[N+](C)(C)CC(=O)Oc1cc(C(C)C)ccc1C [Formula IV, N1,N10-bis(2-(5-isopropyl-2-methylphenoxy)−2-oxoethyl)-N1,N1,N10,N10-tetramethyldecane-1,10-diaminium dichloride] |  | 3.9 to 7.8 | 3.9 | MIC ([3]; Salmonella enterica serovar Typhimurium ATCC 14028 (log 4 conditions)): 3.9; CC50 (in vitro): > 120 µg/mL
Cc1ccc(C(C)C)c(OC(=O)C[N+](C)(C)CCCCCCCCCC[N+](C)(C)CC(=O)Oc2cc(C)ccc2C(C)C)c1 [Formula V, N1,N10-bis(2-(2-isopropyl-5-methylphenoxy)−2-oxoethyl)-N1,N1,N10,N10-tetramethyldecane-1,10-diaminium dichloride] |  | 3.9 to 7.8 |  | MIC [4]: 0.98 µg/mL; MIC (Table 11, head not given) [5]: 3.9-7.8
Cc1ccc(C(C)C)c(OC(=O)C[N+](C)(C)CCCCCCCCCC[N+](C)(C)CCCCCCCCCC[N+](C)(C)CC(=O)Oc2cc(C)ccc2C(C)C)c1 [Formula VII, N1-(2-(2-isopropyl-5-methylphenoxy)−2-oxoethyl)-N10-(10-((2-(2-isopropyl-5-methylphenoxy)-2-oxoethyl)dimethylammonio)decyl)-N1,N1,N10,N10-tetramethyldecane-1,10-diaminium bromide dichloride] | 0.98 |  |  | 
CN[C@H](CC(C)C)C(=O)N[C@H]1C(=O)N[C@@H](CC(N)=O)C(=O)N[C@H]2C(=O)N[C@H]3C(=O)N[C@H](C(=O)N[C@H](C(=O)O)c4cc(O)cc(O)c4-c4cc3ccc4O)[C@H](O)c3ccc(c(Cl)c3)Oc3cc2cc(c3O[C@@H]2O[C@H](CO)[C@@H](O)[C@H](O)[C@H]2O[C@H]2C[C@](C)(N)[C@H](O)[C@H](C)O2)Oc2ccc(cc2Cl)[C@H]1O [Vancomycin, reference compound] |  |  | 78 (≈ 53.8 µM) | 
